From patent EP0465913B1, “Diaminotrifluoromethylpyrimidine derivatives, process for their production and phospholipase A2 inhibitor containing them” (ISHIHARA SANGYO KAISHA, LTD., priority 1990, dated 1992)
Where a name gives a salt, the structure may show the parent alone. Read-outs that look alike come from different tables or passages of the source.

Legend:
[1] = Acute toxicity, intravenous injection (LD50); type: in vivo; conditions: mouse, in vivo, iv, ddy male mice, sodium salt, mortality over one week
Protocol: Administration route: Intravenous injection
Using ddy male mice (body weight: 25 - 30 g), each test group consisted of 5 mice. A test compound was dissolved in the form of a sodium salt in a physiological saline or in a 5% glucose aqueous solution, and intravenously injected in an amount of 0.1 ml/10 g body weight. After the injection, the mortality rate was obtained over one week, and the median lethal dose LD50 (mg/kg) was determined.

[2] = system: experimental acute pancreatitis model; assay: Effects against acute pancreatitis (Test Example 8, closed duodenal loop method, lesion scores); type: in vivo, Crj-CD male rats; conditions: sodium salt, 6 hours after ventrotomy; for inhibition in vivo at 10 mg/kg: Rattus norvegicus, 10 mg/kg single intravenous injection
How it was run: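 Closed duodenal loop pancreatitis in male Crj-CD rats (n=3) under halothane/nitrous oxide; sodium-salt compounds given i.v. into tail vein by continuous infusion or bolus, controls untreated. At 6 h, four pancreatic lesions scored 0-3; inhibition % of total and hemorrhagic scores calculated versus control.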

[3] = biological target: T1, Porcine pancreatic phospholipase A2 (Sus scrofa, UniProt P00592); assay: Phospholipase A2 inhibitory activity, method A (egg yolk lecithin substrate); type: biochemical; conditions: 1,000 ppm, 37°C for 30 minutes, read-out: % inhibition of PLA2 (1,000 ppm)
T1 construct: purchased Boehringer Mannheim·Yamanouchi K.K. 161454·122416
How it was run: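 Egg yolk lecithin dispersed with glycerine, Triton X-100 and CaCl2 in 50 mM Tris-HCl pH7.5 was hydrolysed by enzyme (20 ng/ml solution) with compound, 37°C, 30 min. Released free fatty acid measured by ACS-ACOD method at 540 nm; apparent enzyme level read from a standard curve to give percent inhibition.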

[4] = system: experimental acute pancreatitis model; assay: Effects against acute pancreatitis (Test Example 7, closed duodenal loop method, gross pathological examination); type: in vivo, Crj-CD male rats; design: key: -: No significant lesions; ± ∼ +++: Focal-diffuse; ± ∼ +++: Focal-diffuse; ± ∼ +++: Focal-diffuse; ± ∼ +++: Focal-diffuse; conditions: 40 mg per kg continuous intravenous injection, examination 3 hours after ventrotomy, individual rats
Protocol: Using Crj-CD male rats (for Compound No. 19, rats having a body weight of from 371 to 484 g were used, and for Compound No. 10, rats having a body weight of from 444 to 574 g were used), each test group consisted of 3 rats. An experimental acute pancreatitis model was prepared by a closed duodenal loop method under anesthesia with halothane (manufactured by Hoechst Japan) and nitrous oxide (manufactured by Sumitomo Seika K.K.) applied by means of a general inhalation anesthesia machine (Model EM-2 and halothane evaporator F-Model). Then, Compound No. 19 or Compound No. 10 was continuously intravenously injected into the tail vein in an amount of 50 mg per kg or 40 mg per kg, respectively, at a rate of 0.05 ml per minute by means of a pump (Technicon AA II Proportioning Pump III, manufactured by Technicon Instruments Corporation). No injection was made to a control group. Gross pathological examination was conducted upon expiration of 6 hours after the ventrotomy in the case of the test group to which Compound No. 19 was administered, or upon expiration of 3 hours after the ventrotomy in the case of the test group to which Compound No. 10 was administered. As a result, as shown in the following Table 12, the groups to which the compounds of the present invention were administered, show distinct usefulness for treating acute pancreatitis.

[5] = read-out: Inhibition rate of hemorrhagic lesions (%)
[6] = read-out: Inhibition rate of pancreatitis lesions (%)
[7] = 20 mg/kg continuous intravenous injection

T1 sequence (P00592 23-146): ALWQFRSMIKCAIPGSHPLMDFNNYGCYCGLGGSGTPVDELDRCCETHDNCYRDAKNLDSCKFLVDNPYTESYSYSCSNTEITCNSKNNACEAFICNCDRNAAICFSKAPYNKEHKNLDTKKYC

With `CS(=O)(=O)Nc1ncc(C(F)(F)F)cc1NC(=O)c1cc2ccccc2s1` [compound 86] the LD50 at 168 h [1] was > 40 mg/kg, the inhibition in vivo at 10 mg/kg [2, 5] was 87% and the inhibition in vivo at 10 mg/kg [2, 6] was 85%.

With `CS(=O)(=O)Nc1ncc(C(F)(F)F)cc1NC(=O)c1ccc(F)cc1` [Compound No. 10, N-(2-methylsulfonylamino-5-trifluoromethyl-3-pyridyl)-4-fluorobenzamide] the inhibition at 1000 ppm [3] was 60%, the LD50 at 168 h [1] was 50 to 100 mg/kg and the “Pancreatic hemorrhage Petechia Distribution” value [4] was “± and +”.

With `CS(=O)(=O)Nc1ncc(C(F)(F)F)cc1NC(=O)C(F)(F)C(F)(F)F` [compound 13] the inhibition at 1000 ppm [3] was 87%, the LD50 at 168 h [1] was > 70 mg/kg and the “Inhibition rate of hemorrhagic lesions (%)” value (from here on “Inhibition rate … (%)”) ([2]; 23 mg/kg continuous intravenous injection) was 100%.

For `CCS(=O)(=O)Nc1ncc(C(F)(F)F)cc1NC(=O)C1CCCCC1` [Compound No. 47, N-(2-ethylsulfonylamino-5-trifluoromethyl-3-pyridyl)cyclohexanecarboxamide], the inhibition at 1000 ppm [3] was 75%, the LD50 at 168 h [1] was 58 mg/kg and the “Inhibition rate … (%)” value [2, 7] was 68%.

Work on `C/C=C/C(=O)Nc1cc(C(F)(F)F)cnc1NS(=O)(=O)CC` [compound 93, N-(2-ethylsulfonylamino-5-trifluoromethyl-3-pyridyl)crotonamide] yielded an inhibition in vivo at 10 mg/kg [2, 5] of 70% and an inhibition in vivo at 10 mg/kg [2, 6] of 70%.

For `CS(=O)(=O)Nc1ncc(C(F)(F)F)cc1NC(=O)c1ccccc1` [compound 43], the inhibition at 1000 ppm [3] was 47%, the LD50 at 168 h [1] was 78 mg/kg and the “Inhibition rate … (%)” value [2, 7] was 81%.

Molecule `CS(=O)(=O)Nc1ncc(C(F)(F)F)cc1NC(=O)c1ccc2c(c1)CCC2` [compound 87] has an LD50 at 168 h [1] of 75 mg/kg, an inhibition in vivo at 10 mg/kg [2, 5] of 83% and an inhibition in vivo at 10 mg/kg [2, 6] of 87%.

With `CS(=O)(=O)Nc1ncc(C(F)(F)F)cc1NC(=O)C1CCCC1` [compound 45] the inhibition at 1000 ppm [3] was 50%, the LD50 at 168 h [1] was 98 mg/kg and the “Inhibition rate … (%)” value ([2]; 25 mg/kg continuous intravenous injection) was 62%.

With `CCS(=O)(=O)Nc1ncc(C(F)(F)F)cc1NC(=O)C1CCCC1` [compound 94] the inhibition in vivo at 10 mg/kg [2, 5] was 11% and the inhibition in vivo at 10 mg/kg [2, 6] was 11%.

Work on `CCS(=O)(=O)Nc1ncc(C(F)(F)F)cc1NC(=O)C1CCCCC1` [Compound No. 251, sodium salt of N-(2-ethylsulfonylamino-5-trifluoromethyl-3-pyridyl)cyclohexanecarboxamide] yielded an inhibition in vivo at 10 mg/kg [2, 5] of 79% and an inhibition in vivo at 10 mg/kg [2, 6] of 80%.

With `CS(=O)(=O)Nc1ncc(C(F)(F)F)cc1NC(=O)c1cccc(Cl)c1` [compound 79] the inhibition in vivo at 10 mg/kg [2, 5] was 23% and the inhibition in vivo at 10 mg/kg [2, 6] was 39%.

In the case of `Cc1cccc(C(=O)Nc2cc(C(F)(F)F)cnc2NS(C)(=O)=O)c1` [compound 78], the LD50 at 168 h [1] is reported as > 60 mg/kg, the inhibition in vivo at 10 mg/kg [2, 5] is reported as 96% and the inhibition in vivo at 10 mg/kg [2, 6] is reported as 91%.
